Laboratory results: patent publication US11420922B2, “Hydroxylated tropolone inhibitors of nucleotidyl transferases in herpesvirus and Hepatitis B and uses therefor” (Saint Louis University, priority 2015, dated 2022)
“Also recorded” adds a separate entry of the source. Read-outs that look alike come from different tables or passages of the source.

Key:
HBV = HBV replication assay in HepDES19 cells; assay type: cell-based; conditions: Hepatitis B virus
Description: HBV replication assay. Inhibition of HBV replication was measured in HepDES19 cells as previously described (Cai, et al., 2014). Cells were seeded into 6-well plates and incubated in DMEM/F12, 10% fetal bovine serum (FBS), 1% penicillin/streptomycin (P/S) with 1 μg/ml tetracycline. Tetracycline was withdrawn after 24 hours. The test compound was applied to duplicate wells 48 hours later in medium containing a final DMSO concentration of 1%, and medium containing the compound was refreshed daily for the following two days. Cells were harvested and non-encapsidated nucleic acids were digested with micrococcal nuclease (New England Biolabs). HBV DNA was purified from capsids using QIAamp Cador Pathogen Mini Kit (Qiagen) with proteinase K incubation overnight at 37° C. TaqMan PCR was performed for 40 cycles at an annealing temperature of 60° C. Primers and probe (IDT Inc.) for the plus-polarity strand were: 5′[…]3′ (SEQ ID NO: 1); 5′[…]3′ (SEQ ID NO: 2); 5′/56-FAM/[…]/ZEN/[…]/3IABkFQ (SEQ ID NO: 3). Primers and probe for the minus-polarity strand were: 5′[…]3′ (SEQ ID NO: 4); 5′[…]3′ (SEQ ID NO: 5); 5′/56-FAM/[…]/ZEN/[…]/3IABkFQ (SEQ ID NO: 6).

[1] = Quantitative Vero cell toxicity (MTT); assay type: cell-based; conditions: African green monkey, Vero cells
Description: (§1) Qualitative assessments of cytotoxicity were done visually by inspecting the cells in the primary screening assays. For the quantitative assays, cells were plated in 96-well plates at 1.0×10^4 per well. The next day the compounds were added at 0.78 to 100 μM in a final concentration of 1% (v/v) DMSO, and the cells were incubated for 24 hours under conditions identical to those employed for the viral replication inhibition assays. Mitochondrial toxicity was measured by incubating the cells with 0.25 mg/mL thiazolyl blue tetrazolium bromide (MTT, Sigma Aldrich Chemical Co.), the cultures were incubated for 60 min, metabolites were solubilized in acidic isopropanol, and absorbance was read at 570 nm. CC50 values were calculated by non-linear curve fitting using GraphPad Prism.
Quantitative toxicity measurements were conducted for all compounds that suppressed HSV replication by >2 log10 at 5 μM plus a number of compounds with lesser inhibitory activity for comparison. Toxicity was assessed by […]. Cells were plated in 96-well plates at 1.0×10^4 per well. The next day compound was added in concentrations ranging from 0.78 to 100 μM in a final concentration of 1% (v/v) DMSO. The cells were incubated for 24 h under conditions identical to those employed for the viral replication inhibition assays, and then mitochondrial activity was measured with the MTT assay (Sigma Aldrich) according to the manufacturer's instructions. Percent viability was determined for each compound concentration from the […], and then 50% cytotoxic concentrations (CC50) values were calculated by non-linear curve fitting using GraphPad Prism. Consistent with the subjective assessments of toxicity, all compounds selected for quantitative toxicity assessment had CC50 values≥50 μM under these conditions (Table 1).

HSV-2 [2] = experiment: Anti-HSV-2 replication assay in Vero cells, titers by plaque assay; assay type: cell-based, herpes simplex virus 2; conditions: for log reduction at 5 µM / log reduction at 50 µM: Human alphaherpesvirus 2, Vero, 24 h; for log reduction at 5 µM: read-out: HSV-2 Log suppression 5 μM; for log reduction at 50 µM: read-out: HSV-2 Log suppression 50 μM
HSV-1 [3] = experiment: Anti-HSV-1 replication assay in Vero cells, titers by plaque assay; assay type: cell-based, herpes simplex virus 1; conditions: for log reduction at 5 µM: read-out: HSV-1 Log suppression 5 μM; for log reduction at 50 µM: read-out: HSV-1 Log suppression 50 μM
Description: Vero cells were maintained in Dulbecco's modified Eagle's medium (DMEM) containing 3% newborn calf serum, 3% bovine growth serum, 2 mM L-glutamine and 100 IU/mL penicillin and 0.1 mg/mL streptomycin (P/S). HSV-1 #6 and HSV-2 #1 are de-identified clinical isolates from the Saint Louis University Hospital. Stocks were prepared after a single passage in cell culture and were titered by standard plaque assay (Knipe and Spang, 1982). Wild-type HSV-2 used in FIG. 3 was laboratory strain 333. […] Virus stocks were grown and titered on Vero cells (Morrison and Knipe, 1996).
(§2) Compounds to be screened were diluted in PBS supplemented to contain 2% newborn calf serum and 1% glutamine, and added in 100 μL volume to confluent cell monolayers in 24-well cluster plates. Immediately thereafter HSV-1 and HSV-2, diluted in the supplemented PBS medium, were added to the wells in 50 μl volume such that the final concentration of compound was 50 μM and 5 μM and the multiplicity of infection was 0.1. The plates were incubated at 37° C. for 1 hour and then virus-containing inoculum was removed and the wells were washed once in PBS. Compounds, diluted to 50 μM and 5 μM in DMEM supplemented to contain 2% newborn calf serum and 1% each penicillin/streptomycin, were added at 0.5 mL/well. Plates were incubated at 37° C. an additional 23 hr, and then the plates were visually inspected through a phase contrast microscope for cytopathic effect, and for toxic effect. […] The entire contents of each well were collected by scraping. Samples were frozen at −80° C., and then subsequently thawed, sonicated, and infectious virus titer was determined by standard plaque assay on Vero cell monolayers. Because the compounds were dissolved at 10 mM in 100% DMSO, equivalent dilutions of DMSO were added to additional wells as a control for effects of the diluent. Each experiment was repeated once. EC50 values were determined as above except that serial dilutions of the compound to be tested were prepared starting at 50 μM. The inhibitory values were calculated by non-linear curve-fitting in GraphPad Prism.

[4] = Cytotoxicity reported with the HBV assay (Table 4); assay type: cell-based; conditions: human, hepatoma cells; read-out: CC50 (HBV assay table)
Description: as §1

HSV-2 [5] = conditions: 5 μM or less; cited from earlier work
HSV-1 [6] = conditions: 5 μM or less; cited from earlier work
HSV = experiment: Anti-HSV SAR summary, HSV type not separated; assay type: cell-based, herpes simplex virus; conditions: grouped by activity at 50, 5 and 0.5 μM
Description: as §2
A series of over 20 synthetic αHTs were synthesized and tested to both confirm the initial SAR, and to provide leads for further optimization pursuits (FIG. 5). […] Specifically, biphenyl-containing molecules #118 and 115 inhibit HSV replication by up to 4 log10 at 200 nM. The increased potency over close analogs #111 and 113 confirmed the importance of added lipophilicity.

[7] = Mouse liver microsome assay; assay type: in vitro ADME; conditions: 1 μM in mouse liver microsomes; for half-life at 1 μM: read-out: t ½; for ER: extraction ratio
Description: Microsomal incubations are run at a final P450 concentration of 0.25 μM. The microsomal mixture is composed of 0.1M potassium phosphate containing 3.3 mM MgCl and 1 μM compound (final concentration). The mixture is prewarmed for 5 min at 37° C. To initiate the reaction a 12 mM stock of NAPDH (1.2 mM, final concentration) is added to the warmed microsomal mixture and aliquots are removed at 0, 5, 10, 20 and 30 min. Samples are quenched with ice cold acetonitrile containing internal standard and either 1.8 mM EDTA or EGTA (final concentration). Samples are vortexed and spun down at 3200 rpm for 5 min. The supernant is transferred to 96-deep well plates and run on LC/MS/MS.

[8] = HepDES19 cells, read-out: EC50 (HBV assay)
[9] = Human alphaherpesvirus 1, Vero, 24 h

Row | SMILES | EC50 (HBV; [8]) [µM] | CC50 at 24 h [1] [µM] | log reduction at 5 µM (HSV-2 [2]) | log reduction at 50 µM (HSV-2 [2]) | log reduction at 5 µM (HSV-1 [3]; [9]) | log reduction at 50 µM (HSV-1 [3]; [9]) | CC50 at 24 h [4] [µM] | suppression of HSV-2 replication in cell culture, in words (HSV-2 [5]) | suppression of HSV-1 replication in cell culture, in words (HSV-1 [6]) | anti-HSV SAR group, in words (HSV) | Non-P450 turn-over [7] | half-life at 1 μM [7] [h] | ER [7] | HSV-2 inhibition, fold (HSV-2 [2]; 5 μM) | HSV-1 inhibition, fold (HSV-1 [3]; 5 μM) | EC50 (HSV-1 [3]; Human alphaherpesvirus 1, Vero, 24 h, read-out: HSV-1 EC50) [µM] | EC50 (HBV; HepDES19, read-out: EC50 (HBV assay)) [µM]
1 | Cc1cc(O)c(=O)c(O)cc1-c1ccccc1 [Compound 113] | 4.2 | > 100 | 2.07 | 5.61 | 2.27 | 5.38 | – | – | – | – | – | – | – | – | – | – | –
2 | Cc1cc(O)c(=O)c(O)cc1-c1cccc(Br)c1 [Compound 119] | 6.4 | 72.4 | 5.02 | 4.88 | 5.19 | 5.28 | 81 | – | – | – | – | – | – | – | – | – | –
3 | Cc1cc(O)c(=O)c(O)cc1C(=O)C1CCCCC1 [Compound 120] | – | ~50 | 5.41 | 5.07 | 4.84 | 5.53 | 24 | strongly suppress | strongly suppress | fully inhibitory at 5 μM | – | – | – | – | – | – | –
4 | Cc1cc(O)c(=O)c(O)cc1C(=O)CC1CCCCC1 [Compound 173] | 6.7 | > 100 | 5.32 | 5.94 | 5.91 | 5.8 | 22 | – | – | fully inhibitory at 5 μM | – | – | – | – | – | – | –
5 | Cc1cc(O)c(=O)c(O)cc1-c1cccc2ccccc12 [Compound 146] | 2.3 | > 100 | 5.66 | 5.29 | 5.68 | 6.2 | 12 | – | – | highly inhibitory at much lower concentrations; also recorded: fully inhibitory at 0.5 μM | No | > 2 | <0.1 | 457,100 fold | 478,600 fold | 0.45 | –
6 | Cc1cc(O)c(=O)c(O)cc1C(=O)C(C)C [Compound 143] | 6 | – | 0 | 4.78 | 0.25 | 5.93 | > 100 | strongly suppress | strongly suppress | weakest inhibitors | – | – | – | – | – | – | –
7 | Cc1cc(O)c(=O)c(O)cc1-c1ccc(C(F)(F)F)cc1 [Compound 145] | – | > 100 | 4.05 | 4.33 | 3.96 | 3.97 | – | – | – | – | – | – | – | – | – | – | –
8 | Cc1cc(O)c(=O)c(O)cc1-c1ccc2ccccc2c1 [Compound 147] | – | 74.8 | 4.33 | 4.12 | 5.92 | 5.81 | – | – | – | – | No | > 2 | <0.1 | – | – | – | –
9 | COC(=O)c1c(C)cc(O)c(=O)c(O)c1C(=O)OC [Compound 106] | 2.7 | – | -0.55 | 2.87 | -0.07 | 4.11 | – | – | – | weakest inhibitors | – | – | – | – | – | – | –
10 | O=c1c(O)ccccc1O [Compound 172] | – | > 100 | 1.8 | 4.64 | 3.31 | 4.11 | > 100 | – | – | moderate inhibitors | – | – | – | – | – | – | 2.1
11 | Cc1cc(O)c(=O)c(O)cc1-c1ccc(Br)cc1 [Compound 114] | – | > 100 | 3.92 | 5.26 | 4.8 | 4.75 | – | – | – | – | – | – | – | – | – | – | –
